In patent publication US20230339866A1, “Quinazoline compounds and the use thereof in the treatment of cancer” (TROBIO THERAPEUTICS PTY LTD, priority 2020, published 2023):
Where two headings read alike, the source gives them in different places.

How the values were obtained:
PC3 (prostate) = assay: Anti-proliferative activity against PC3 prostate cancer cells; assay type: cell-based; details: 72 h exposure
Method: (§1) The ability of compounds of the invention to inhibit the proliferation of cancer cells representative of non-small cell lung cancer and ovarian cancer (Table 2), pancreatic cancer, colorectal cancer and prostate cancer (Table 3) was assessed. Briefly, a predetermined number of cells as calculated from cell growth assays for each of the cell lines employed were seeded into their respective culture medium (using ATCC culture parameters—http://www.atcc.org) and cultured for 24 h at 37° C. and 5% CO2 in 96-well culture plates. Once attached, each cell line was then exposed to various concentrations of each respective analogue (30, 10, 3, 1, 0.3 and 0.1 μM), cultured for a further 72 h and exposed to Cell-Titre luminescent reagent (100 μL/well) for a further 30 min. Luminescence was captured using an EnVision multilabel reader and the data for each analogue concentration compared against no treatment control. Cell viability was normalised to control (vehicle alone) and dose response curves, and half maximal effective concentration (EC50) values were determined using Graph Pad Prism 6 (nonlinear regression sigmoidal dose-response variable slope).

Caco-2 (colorectal) = assay: Anti-proliferative activity against Caco-2 colorectal cancer cells; assay type: cell-based; details: Homo sapiens, 72 h exposure
Method: as §1

A2780 (ovarian) = assay: Anti-proliferative activity (Cell-Titre luminescence) against A2780 ovarian cancer cells; assay type: cell-based; details: Homo sapiens, A2780, 72 h, 72 h exposure, Cell-Titre luminescent reagent
Method in brief: (§2)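 Cells grown 24 h at 37 °C, 5% CO2, then exposed 72 h to compound at 30, 10, 3, 1, 0.3 and 0.1 μM. Viability by Cell-Titre luminescence (30 min), normalised to vehicle; EC50 from variable-slope sigmoidal nonlinear regression.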

A549 (NSCLC) = assay: Anti-proliferative activity (Cell-Titre luminescence) against A549 non-small cell lung cancer cells; assay type: cell-based; details: Homo sapiens, A549, 72 h, 72 h exposure, Cell-Titre luminescent reagent
Method in brief: as §2

Tpm3.1 [1] = target: T1, Tpm3.1 (Homo sapiens, UniProt P06753); assay: Actin depolymerisation assay; assay type: biochemical; details: 50 μmol/L test compound, pyrene-labelled F-actin, 160 minutes
Method: A 12 μmol/L solution of labelled F-actin was prepared by polymerising the monomeric actin (35% pyrene labelled Rabbit Muscle (Cytoskeleton Inc)) into filaments in the presence of buffer T (100 mmol/L NaCl; 10 mmol/L Tris HCl pH 7.5; 2 mmol/L MgCl2; 1 mmol/L EGTA; 0.5 mmol/L DTT) with added ATP (0.2 mmol/L), for 1 hour in the dark at room temperature. Tpm3.1 (10 μmol/L) was reduced in buffer T containing 1 mmol/L DTT at 70° C. for 6 minutes and centrifuged at 60,000 rpm for 30 minutes to remove nonreduced dimers. […] Duplicate samples were diluted 12-fold using an F-actin polymerisation buffer (100 mmol/L NaCl; 10 mmol/L Tris HCl pH 7; 2 mmol/L MgCl2; 1 mmol/L EGTA; 0.2 mmol/L ATP; 1 mmol/L DTT) and the depolymerisation rates of F-actin alone, F-actin/Tpm3.1, and the F-actin/Tpm3.1/test compound filament complex were measured using a Costar 3915 fluorescence plate reader (407 nm) at 36-second intervals for 160 minutes at room temperature. Data were normalized to the initial fluorescence value and polymerisation curves of duplicate samples were fitted to a two-phase exponential decay model using OriginPro 9.1 (OriginLab) (FIG. 3A). Percent polymerisation was determined at t160 as a function of to (100%) (FIG. 3B, p<0.0001).
Target sequence in this assay (P06753 1-248 isoform P06753-2): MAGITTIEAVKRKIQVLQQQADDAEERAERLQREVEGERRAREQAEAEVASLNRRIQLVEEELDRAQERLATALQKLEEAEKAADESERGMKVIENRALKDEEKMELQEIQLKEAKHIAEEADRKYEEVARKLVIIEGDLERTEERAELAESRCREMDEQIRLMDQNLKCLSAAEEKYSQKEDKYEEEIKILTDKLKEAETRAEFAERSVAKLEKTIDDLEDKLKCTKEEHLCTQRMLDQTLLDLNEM

[2] = tested on: A2780 ovarian cancer cells; assay: cells; details: Homo sapiens, A2780, 72 h, read-out: IC50 values used for the dose matrix (compounds)
Method: (§3) The A2780 cell line was maintained as a monolayer in Dulbeccos Modified Eagles medium (DMEM) supplemented with 10% foetal bovine serum (FBS) and grown at 37° C. in a humidified atmosphere with 5% CO2. […] Each screening plate contained one 6×6 dose matrix for two drugs using two-fold dilution steps. […] Viability was measured after 72 hours using a standard MTS assay.
(§4) Synergistic drug interactions were determined for each pairwise drug combination by applying the Bliss-independence model that assumes independence of drug mechanisms.
(§5) The Bliss additivism model was used to calculate a predicted combined response C to two single agents with responses A and B (using GI values), as follows:
(§6) The final score for any combination was reported as the difference between the value predicted by the additive model and the experimentally observed value, normalised to 100. Using GI values the maximum possible synergy score is 100, with 0 indicating no synergy and negative indicating possible antagonism. Scores were also reported as a “Max synergy” score, which is the highest individual synergy score for each combination matrix, and a “Total synergy” score, which was obtained by summation of each individual synergy score for the matrix.

[3] = tested on: A2780 ovarian cancer cells; details: for Paclitaxel Max. Synergy / Paclitaxel Total Synergy: combination with paclitaxel; for Paclitaxel Max. Synergy / Paclitaxel Total Synergy / Vinorelbine Max. Synergy / Vinorelbine Total Synergy: Bliss score; for Paclitaxel Max. Synergy / Vinorelbine Max. Synergy: highest individual score of 6×6 matrix; for Paclitaxel Total Synergy / Vinorelbine Total Synergy: sum over matrix; for Vinorelbine Max. Synergy / Vinorelbine Total Synergy: combination with vinorelbine
Method: as §3, §4, §5, §6

[4] = tested on: Tpm3.1-containing actin microfilaments; assay: Disruption of Tpm3.1-containing actin microfilaments in SK-N-SH cells (imaging and quantitation); assay type: cell-based; details: SK-N-SH cells expressing Tpm3.1-mCherry, 24 hours, two concentrations
Method: The ability of compounds 57, 87 and 92 to disrupt Tpm3.1-containing actin microfilaments was investigated in SK-N-SH neuroblastoma cells that express Tpm3.1 labelled with the mCherry fluorophore. Cells were seeded at 3×10^4 cells per well in a volume of 1000 μL complete media onto a 12 well plate containing 13 mm coverslips and left to plate down for 24 hours prior to treatment. Cells were then treated with DMSO and two concentrations of the test compounds. 24 hours post-treatment, cells were fixed with 16% paraformaldehyde (PBS) and stained with 488-Atto-Phalloidin to visualise the actin filament bundles. Single plane images were obtained using the Olympus IX83 epi-fluorescence microscope. Ten fields of view were collected for both Tpm3.1 mCherry fluorophore (FIG. 4) and 488-Atto-Phalloidin (FIG. 5) with each treatment condition.
Quantitation of either Tpm3.1 mCherry filaments or 488-Atto-Phalloidin filaments was performed using ImageJ 1.52p software (ImageJ, NIH). The mean pixel intensity from a cell was measured by using a line across the entire cell cytoplasmic area above or below the nuclear region. The line was made to cross the filament bundles at a […] for the measurement rather than run along a single filament. A total of n=100 cells were measured from ten fields of view. Cells with pixel intensities that were more than twice the average intensity in the field were excluded from the measurement. The mean pixel intensity from n=100 cells was imported into Microsoft Excel to obtain the average intensity of either Tpm3.1 mCherry filaments or 488-Atto-Phalloidin filaments from each treatment condition. Values were normalised as a percent of the 0 μM control in order to generate a bar graph.

[5] = tested on: SK-N-SH neuroblastoma cells; assay: Anti-proliferative activity (MTS assay) against SK-N-SH neuroblastoma cells; assay type: cell-based; details: Homo sapiens, SK-N-SH, 72 h
Method: The ability of compounds of the disclosure to inhibit the proliferation of SK-N-SH neuroblastoma cells was also assessed. […] Cell viability was normalised to control (vehicle alone) and dose response curves and IC50 values (Table 4) were determined using Graph Pad Prism 6.

Tpm3.1 [6] = target: T1, Tpm3.1; assay: Circular dichroism spectroscopy, thermal unfolding of Tpm3.1 peptides; assay type: binding; parameters: N-terminus (residues 2-80 with an initial Ala-Gly dipeptide to mimic N-terminal acetylation) of Tpm3.1; Peptides corresponding to the C-terminus (residues 139-248) and N-terminus; made in house; details: test compound 100 μM, peptide 20 μM, CD at 222 nm
Method: The interactions of compounds 11, 13, 32 and 92 with the N-terminus and overlap region of Tpm3.1 were measured using circular dichroism (CD) spectroscopy (see FIG. 1). Peptides corresponding to the C-terminus (residues 139-248) and N-terminus (residues 2-80 with an initial Ala-Gly dipeptide to mimic N-terminal acetylation) of Tpm3.1 were prepared as described in the literature (Janco et al., 2019). CD spectra and thermal unfolding isotherms of N_82AA_Tpm3.1 and C_109AA_Tpm3.1 peptides were acquired on a Chirascan Plus CD Spectrometer (Applied Photophysics Limited, U.K.) in stoppered 0.5 mm cuvettes (48/Q/0.5; Starna Scientific Ltd.). Proteins were dialyzed O/N against 10 mM NaH2 PO4, 150 mM NaCl, 75 μM TCEP (added prior to experiment), 1% (v/v) acetonitrile pH 7 buffer. Final concentration of peptides was 20 μM. Tpm samples containing the test compound (100 μM) were incubated at 37° C. O/N. CD spectra were measured from 195 to 260 nm with a 1 nm step size and a […], taking 3 to 4 averages at 37° C. The thermal unfolding was carried at 222 nm over the range 20-85° C. at the rate of 1° C./min. Sample was cooled down to the initial temperature and heating procedure was repeated 2 to 3 times. To obtain information of the major thermal transitions from individual isotherms, data were further smoothed by the Savitzky-Golay method (5-point window), differentiated and then fitted to multiple Gaussian peaks as described previously (Janco et al., 2012) (FIG. 2).

MIA PaCa-2 (pancreatic) = assay: Anti-proliferative activity against MIA PaCa-2 pancreatic cancer cells; assay type: cell-based; details: Homo sapiens, 72 h exposure
Method: as §1

Row | Compound | IC50 (PC3 (prostate)) | IC50 (Caco-2 (colorectal)) | IC50 (A2780 (ovarian)) | IC50 (A549 (NSCLC)) | IC50 [2] | IC50 [5] | Effect on melting profile of the Tpm3.1 N-terminal peptide construct (Tpm3.1 [6]) | Effect on stability of the Tpm3.1 N-terminal peptide (Tpm3.1 [6]) | IC50 (MIA PaCa-2 (pancreatic)) | Effect on stability (melting profile) of the overlap complex formed by the N- and C-terminal peptides (Tpm3.1 [6]) | Inhibition of Tpm3.1 protection of actin filaments from depolymerisation (Tpm3.1 [1]) | Paclitaxel Max. Synergy [3] | Paclitaxel Total Synergy [3] | Vinorelbine Max. Synergy [3] | Vinorelbine Total Synergy [3] | Disruption of Tpm3.1-containing actin microfilaments [4] | IC50 ([3]; read-out: IC50 values used for the dose matrix (cytotoxic agents), A2780, single agent, MTS 72 hours)
1 | OCCCNc1nc(NCCc2cccc(C(F)(F)F)c2)nc2ccccc12 [Compound 92, 3-((2-((3-(trifluoromethyl)phenethyl)amino)quinazolin-4-yl)amino)propan-1-ol] | 4.49 µM | 2.48 µM | 2.22 µM | 1.3 µM | 5 µM | 2 µM | alter the melting profile | decrease the stability | 3.19 µM |  | inhibit the ability of Tpm3.1 to protect actin filaments from depolymerisation | 17.97 | 100.06 | 27.55 | 204.68 | disrupt Tpm3.1-containing actin microfilaments in a dose-dependent manner | 
2 | CCc1ccc(CCNc2nc(NCCN3CCN(C)CC3)c3ccccc3n2)cc1 [Compound 57, N^2-(4-ethylphenethyl)-N^4-(2-(4-methylpiperazin-1-yl)ethyl)quinazoline-2,4-diamine] | 1.48 µM | 1.12 µM | 0.655 µM | 1.53 µM |  | 1.11 µM |  |  | 1.02 µM |  |  |  |  |  |  | disrupt Tpm3.1-containing actin microfilaments in a dose-dependent manner | 
3 | CCC1=C[C@@H]2CN(C1)Cc1c([nH]c3ccccc13)[C@@](C(=O)OC)(c1cc3c(cc1OC)N(C)[C@H]1[C@@](O)(C(=O)OC)[C@H](OC(C)=O)[C@]4(CC)C=CCN5CC[C@]31[C@@H]54)C2 [vinorelbine, reference compound] |  |  |  |  |  |  |  |  |  |  |  |  |  |  |  |  | 0.004 µM
4 | OCCNc1nc(NCc2ccc(C(F)(F)F)cc2)nc2ccccc12 [Compound 32, 2-((2-((4-(trifluoromethyl)benzyl)amino)quinazolin-4-yl)amino)ethan-1-ol] |  |  | 1.28 µM | 4.63 µM |  | 4.09 µM | alter the melting profile | decrease the stability |  | increasing |  |  |  |  |  |  | 

More lines, main results first:

Row | IC50 (PC3 (prostate)) | IC50 (Caco-2 (colorectal)) | IC50 (A2780 (ovarian)) | IC50 (A549 (NSCLC)) | IC50 [2] | IC50 [5] | Effect on melting profile of the Tpm3.1 N-terminal peptide construct (Tpm3.1 [6]) | Effect on stability of the Tpm3.1 N-terminal peptide (Tpm3.1 [6]) | IC50 (MIA PaCa-2 (pancreatic)) | Effect on stability (melting profile) of the overlap complex formed by the N- and C-terminal peptides (Tpm3.1 [6]) | Compound | Inhibition of Tpm3.1 protection of actin filaments from depolymerisation (Tpm3.1 [1]) | Paclitaxel Max. Synergy [3] | Paclitaxel Total Synergy [3] | Vinorelbine Max. Synergy [3] | Vinorelbine Total Synergy [3] | Disruption of Tpm3.1-containing actin microfilaments [4] | IC50 ([3]; read-out: IC50 values used for the dose matrix (cytotoxic agents), A2780, single agent, MTS 72 hours)
5 |  |  | 5.65 µM | 6.5 µM |  | 1.72 µM | alter the melting profile | stabilizing effect |  |  | CN1CCN(CCNc2nc(-c3cc[nH]c3)nc3ccccc23)CC1 [Compound 13, N-(2-(4-methylpiperazin-1-yl)ethyl)-2-(1H-pyrrol-3-yl)quinazolin-4-amine] |  |  |  |  |  |  | 
6 | 4.12 µM | 4.33 µM | 2.6 µM | 2.36 µM | 3 µM | 1.38 µM |  |  | 2.75 µM |  | Fc1cccc(CCNc2nc(NCCc3c[nH]cn3)c3ccccc3n2)c1 [Compound 87, N^4-(2-(1H-imidazol-4-yl)ethyl)-N^2-(3-fluorophenethyl)quinazoline-2,4-diamine] |  | 9.54 | 28.53 | 24.46 | 160.51 | disrupt Tpm3.1-containing actin microfilaments in a dose-dependent manner | 
7 |  |  | 6.43 µM | 10.3 µM |  | 9.11 µM | alter the melting profile | decrease the stability |  | decreasing | CN1CCN(CCNc2nc(-c3ccsc3)nc3ccccc23)CC1 [Compound 11, N-(2-(4-methylpiperazin-1-yl)ethyl)-2-(thiophen-3-yl)quinazolin-4-amine] |  |  |  |  |  |  | 
